Experiment: Storage stability of Oligosaccharide Crystals (I) and freeze-dried Oligosaccharide (I) powders (residual rate by HPLC)
Assay type: physicochemical
Conditions: 105° C. in the atmosphere under ordinary pressure
Procedure: The storage stability of Oligosaccharide Crystals (I) obtained in Examples 1 to 3 and freeze-dried Oligosaccharide (I) powders obtained in Reference Examples 1 to 3 was examined by keeping them at 105° C. in the atmosphere under ordinary pressure for 20 days and measuring the residual rate of Oligosaccharides (I).
The residual rate of Oligosaccharides (I) in the samples was measured by high performance liquid chromatography (HPLC) and expressed in terms of HPLC purity (%)
Measurement conditions for HPLC are as follows.
Analyzer: product of Dionex Corporation
Column temperature: 30° C.
Mobile phase: 10-100% aqueous solution of NaOH
(500 mmol/L) (Gradient elution in 11 minutes)
Detection: electrochemical detection (PAD method)

Row | Structure (SMILES) | Residual rate of oligosaccharides: HPLC purity (%) (days that passed: 0) | Residual rate of oligosaccharides: HPLC purity (%) (days that passed: 1) | Residual rate of oligosaccharides: HPLC purity (%) (days that passed: 4) | Residual rate of oligosaccharides: HPLC purity (%) (days that passed: 7) | Residual rate of oligosaccharides: HPLC purity (%) (days that passed: 20)
1 | CC(=O)N[C@H]1[C@H](O[C@H]2[C@@H](O)[C@@H](CO)O[C@@H](O[C@H]3[C@H](O)[C@@H](O)C(O)O[C@@H]3CO)[C@@H]2O)O[C@H](CO)[C@@H](O)[C@@H]1O (stereo partly drawn) [Crystals No. 1, GlcNAcβ1, 3Galβ1, 4Glc] | 98.0 | 99.7 | 99.7 | 99.7 | 98.9
2 | CC(=O)N[C@H]1[C@H](O[C@H]2[C@@H](O)[C@@H](CO)O[C@@H](O[C@H]3[C@H](O)[C@@H](O)C(O)O[C@@H]3CO)[C@@H]2O)O[C@H](CO)[C@@H](O[C@@H]2O[C@H](CO)[C@H](O)[C@H](O)[C@H]2O)[C@@H]1O (stereo partly drawn) [Crystals No. 2, Galβ1, 4GlcNAcβ1, 3Galβ1, 4Glc] | 99.3 | 99.0 | 99.2 | 99.0 | 98.8
3 | CC(=O)N[C@H]1[C@H](O[C@H]2[C@@H](O)[C@@H](CO)O[C@@H](O[C@H]3[C@H](O)[C@@H](O)C(O)O[C@@H]3CO)[C@@H]2O)O[C@H](CO)[C@@H](O[C@@H]2O[C@H](CO)[C@H](O)[C@H](O[C@@H]3O[C@H](CO)[C@@H](O)[C@H](O)[C@H]3NC(C)=O)[C@H]2O)[C@@H]1O (stereo partly drawn) [Crystals No. 3, GlcNAcβ1, 3Galβ1, 4GlcNAcβ1, 3Galβ1, 4Glc] | 98.8 | 99.3 | 99.0 | 99.0 | 99.3
4 | CC(=O)N[C@H]1[C@H](O[C@H]2[C@@H](O)[C@@H](CO)O[C@@H](O[C@H]3[C@H](O)[C@@H](O)C(O)O[C@@H]3CO)[C@@H]2O)O[C@H](CO)[C@@H](O[C@@H]2O[C@H](CO)[C@H](O)[C@H](O)[C@H]2O)[C@@H]1O (stereo partly drawn) [Freeze-dried Galβ1, 4GlcNAc-β1, 3Galβ1, 4Glc powders] [Galβ1,4GlcNAcβ1,3Galβ1,4Glc] | 99.3 | 98.6 | 97.6 | 96.2 | 90.9
5 | CC(=O)N[C@H]1[C@H](O[C@H]2[C@@H](O)[C@@H](CO)O[C@@H](O[C@H]3[C@H](O)[C@@H](O)C(O)O[C@@H]3CO)[C@@H]2O)O[C@H](CO)[C@@H](O)[C@@H]1O (stereo partly drawn) [Freeze-dried GlcNAcβ1, 3Gal-β1, 4Glc powders] [GlcNAcβ1,3Galβ1,4Glc] | 99.8 | 99.7 | 97.0 | 98.8 | 93.8
6 | CC(=O)N[C@H]1[C@H](O[C@H]2[C@@H](O)[C@@H](CO)O[C@@H](O[C@H]3[C@H](O)[C@@H](O)C(O)O[C@@H]3CO)[C@@H]2O)O[C@H](CO)[C@@H](O[C@@H]2O[C@H](CO)[C@H](O)[C@H](O[C@@H]3O[C@H](CO)[C@@H](O)[C@H](O)[C@H]3NC(C)=O)[C@H]2O)[C@@H]1O (stereo partly drawn) [Freeze-dried GlcNAcβ1, 3Gal-β1, 4GlcNAcβ1, 3Galβ1, 4Glc powd] [GlcNAcβ1,3Galβ1,4GlcNAcβ1,3Galβ1,4Glc] | 98.6 | 98.2 | 97.4 | 95.4 | 85.2

Source: patent US20040149200A1, “Crystals of an oligosaccharides and process for preparation thereof” (priority 2001, published 2004)
